Earlier results on 1 compound are cited in patent publication US11555040B2, “Oxepinopyrazole derivatives as inhibitors of P13-kinase activity” (GLAXOSMITHKLINE INTELLECTUAL PROPERTY DEVELOPMENT LIMITED, priority 2017, dated 2023).

This data set has as its system amphetamine-induced psychosis. Particulars: Law et al. 2012.

For the compound `Cc1ccccc1-n1c(Cn2cnc3c(N)ncnc32)nc2cccc(C)c2c1=O` [IC87114], the “efficacy in mouse model of amphetamine-induced psychosis” value is recorded as “remarkable efficacy”.
